What was measured:
Type in all cases: in vivo
[1] = tested on: oilseed rape; test: Field trial Example 1, successive application: phytotoxicity (PHYTOX) on oilseed rape crop; details: for PHYTOX (damage on the oilseed rape crop): DAT 205/DALT 190
Description: (§1) Aminiopyralid was used as commercial aquaeous solution having an active ingredient concentration of 240 g/l (Milestone™). Metazachlor was used as a commercial suspension concentrate having an active ingredient concentration of 500 g/l (Butisan S®).
(§2) The performance of aminopyralid applied as an alone treatment at 15, 30 and 50 g a.i./ha applied as an early post emergence treatment and an post emergence treatment in comparison to two different applications including metazachlor at 500 g a.i./ha as an early post emergence application in succession of aminopyralid as a post emergence application at 15 and 30 g a.i./ha was assessed in an oilseed rape field trials.
(§3) The early post emergence treatment was applied by means of fine distributed nozzles at the growth stage (GS) of the crop BBCH 11-12.
(§4) The post emergence treatment was applied by means of fine distributed nozzles at the growth stage (GS) of the crop BBCH 13-14.
(§5) The test period extended over the autumn and spring season (205 days).
(§6) In the following experiments, the herbicidal activity for the individual herbicide compounds (solo application) and of the herbicidal succession was assessed 4 times:
The evaluation for the damage on the oilseed rape crop, the plant injury or phytotoxicity (PHYTOX) caused by the chemical compositions was carried out using a scale from 0 to 100%, compared to the untreated control plants. Here, 0 means no damage and 100 means high injury of the plants.

[2] = tested on: Alopecurus myosuroides; test: Field trial Example 1, successive application: damage on ALOMY
Description: as §1, §2, §3, §4, §5, §6
(§7) The evaluation for the damage on undesired weeds caused by the chemical compositions was carried out using a scale from 0 to 100%, compared to the untreated control plants. Here, 0 means no damage and 100 means complete destruction of the plants.

[3] = tested on: Geranium pusillum; test: Field trial Example 1, successive application: damage on GERPU
Description: as §1, §2, §3, §4, §5, §6, §7

[4] = tested on: Sissimbrium officinale; test: Field trial Example 1, successive application: damage on SSYOF
Description: as §1, §2, §3, §4, §5, §6, §7

[5] = tested on: Matricaria inodora; test: Field trial Example 2, combined application: MATIN; details: Aminopyralid 7.5 g ai/ha solo
Experimental: as §1, §7
(§8) The value E, which is to be expected if the activity of the individual compounds is just additive, was calculated using the method of S. R. Colby (1967) “Calculating synergistic and antagonistic responses of herbicide combinations”, Weeds 15, p. 22 ff.
(§9) The performance of aminopyralid, applied as an alone treatment at […] and 15 g ai/ha, and the performance of metazachlor, applied as an alone treatment at 375 and 500 g ai/ha, as well as the mixtures of the both compounds have been assessed in winter oilseed rape field trials. The trials have been conducted in Germany at two locations.
(§10) Post emergence treatment was applied by means of fine distributed nozzels at the growth stage (GS/BBCH 11/12).

[6] = tested on: Papaver rhoeas; test: Field trial Example 2, combined application: PAPRH
Experimental: as §1, §7, §8, §9, §10

[7] = 15 g ai/ha, treatment A early post emergence, DAT 25/DALT 10
[8] = 15 g ai/ha, treatment A early post emergence, DAT 65/DALT 50
[9] = 15 g ai/ha, treatment A early post emergence, DAT 176/DALT 161
[10] = 15 g ai/ha, treatment B post emergence, DAT 25/DALT 10
[11] = 15 g ai/ha, treatment B post emergence, DAT 65/DALT 50
[12] = 15 g ai/ha, treatment B post emergence, DAT 176/DALT 161
[13] = 30 g ai/ha, treatment A early post emergence, DAT 25/DALT 10
[14] = 30 g ai/ha, treatment A early post emergence, DAT 65/DALT 50
[15] = 30 g ai/ha, treatment A early post emergence, DAT 176/DALT 161
[16] = 30 g ai/ha, treatment B post emergence, DAT 25/DALT 10
[17] = 30 g ai/ha, treatment B post emergence, DAT 65/DALT 50
[18] = 30 g ai/ha, treatment B post emergence, DAT 176/DALT 161
[19] = 50 g ai/ha, treatment A early post emergence, DAT 25/DALT 10
[20] = 50 g ai/ha, treatment A early post emergence, DAT 65/DALT 50
[21] = 50 g ai/ha, treatment A early post emergence, DAT 176/DALT 161
[22] = 50 g ai/ha, treatment B post emergence, DAT 25/DALT 10
[23] = 50 g ai/ha, treatment B post emergence, DAT 65/DALT 50
[24] = 50 g ai/ha, treatment B post emergence, DAT 176/DALT 161
[25] = aminopyralid 15 g ai/ha, treatment A, DAT 205/DALT 190
[26] = aminopyralid 15 g ai/ha, treatment B, DAT 205/DALT 190
[27] = aminopyralid 30 g ai/ha, treatment A, DAT 205/DALT 190
[28] = aminopyralid 30 g ai/ha, treatment B, DAT 205/DALT 190
[29] = aminopyralid 50 g ai/ha, treatment A, DAT 205/DALT 190
[30] = aminopyralid 50 g ai/ha, treatment B, DAT 205/DALT 190

With `Nc1cc(Cl)nc(C(=O)O)c1Cl` [aminopyralid, 4-amino-3,6-dichloropyridine-2-carboxylic acid] the “PHYTOX (damage on oilseed rape crop)” value [1, 7] was 11%, the “PHYTOX (damage on oilseed rape crop)” value [1, 8] was 3% and the “PHYTOX (damage on oilseed rape crop)” value [1, 9] was 2%. For the same molecule, the “PHYTOX (damage on oilseed rape crop)” value [1, 10] was 0%, the “PHYTOX (damage on oilseed rape crop)” value [1, 11] was 0% and the “PHYTOX (damage on oilseed rape crop)” value [1, 12] was 0%. For the same molecule, the “PHYTOX (damage on oilseed rape crop)” value [1, 13] was 27%, the “PHYTOX (damage on oilseed rape crop)” value [1, 14] was 30% and the “PHYTOX (damage on oilseed rape crop)” value [1, 15] was 0%. For the same molecule, the “PHYTOX (damage on oilseed rape crop)” value [1, 16] was 0%, the “PHYTOX (damage on oilseed rape crop)” value [1, 17] was 0% and the “PHYTOX (damage on oilseed rape crop)” value [1, 18] was 0%. The “PHYTOX (damage on oilseed rape crop)” value [1, 19] was 40%, the “PHYTOX (damage on oilseed rape crop)” value [1, 20] was 50% and the “PHYTOX (damage on oilseed rape crop)” value [1, 21] was 0%. For the same molecule, the “PHYTOX (damage on oilseed rape crop)” value [1, 22] was 7%, the “PHYTOX (damage on oilseed rape crop)” value [1, 23] was 0% and the “PHYTOX (damage on oilseed rape crop)” value [1, 24] was 0%. The “PHYTOX (damage on the oilseed rape crop)” value ([1]; aminopyralid 15 g ai/ha, treatment A) was 0%, the “PHYTOX (damage on the oilseed rape crop)” value ([1]; aminopyralid 15 g ai/ha, treatment B) was 0% and the “PHYTOX (damage on the oilseed rape crop)” value ([1]; aminopyralid 30 g ai/ha, treatment A) was 0%. The “PHYTOX (damage on the oilseed rape crop)” value ([1]; aminopyralid 30 g ai/ha, treatment B) was 0%, the “PHYTOX (damage on the oilseed rape crop)” value ([1]; aminopyralid 50 g ai/ha, treatment A) was 0% and the “PHYTOX (damage on the oilseed rape crop)” value ([1]; aminopyralid 50 g ai/ha, treatment B) was 0%. The “damage on ALOMY” value [2, 7] was 0%, the “damage on ALOMY” value [2, 8] was 22% and the “damage on ALOMY” value [2, 9] was 22%. The “damage on ALOMY” value [2, 10] was 0%, the “damage on ALOMY” value [2, 11] was 25% and the “damage on ALOMY” value [2, 12] was 25%. The “damage on ALOMY” value [2, 13] was 57%, the “damage on ALOMY” value [2, 14] was 37% and the “damage on ALOMY” value [2, 15] was 37%. For the same molecule, the “damage on ALOMY” value [2, 16] was 0%, the “damage on ALOMY” value [2, 17] was 32% and the “damage on ALOMY” value [2, 18] was 32%. For the same molecule, the “damage on ALOMY” value [2, 19] was 77%, the “damage on ALOMY” value [2, 20] was 80% and the “damage on ALOMY” value [2, 21] was 80%. The “damage on ALOMY” value [2, 22] was 20%, the “damage on ALOMY” value [2, 23] was 42% and the “damage on ALOMY” value [2, 24] was 42%. For the same molecule, the “damage on ALOMY” value [2, 25] was 22%, the “damage on ALOMY” value [2, 26] was 38% and the “damage on ALOMY” value [2, 27] was 37%. For the same molecule, the “damage on ALOMY” value [2, 28] was 32%, the “damage on ALOMY” value [2, 29] was 80% and the “damage on ALOMY” value [2, 30] was 42%. The “damage on GERPU” value [3, 7] was 57%, the “damage on GERPU” value [3, 8] was 72% and the “damage on GERPU” value [3, 9] was 78%. The “damage on GERPU” value [3, 10] was 75%, the “damage on GERPU” value [3, 11] was 68% and the “damage on GERPU” value [3, 12] was 75%. For the same molecule, the “damage on GERPU” value [3, 13] was 92%, the “damage on GERPU” value [3, 14] was 90% and the “damage on GERPU” value [3, 15] was 95%. The “damage on GERPU” value [3, 16] was 78%, the “damage on GERPU” value [3, 17] was 82% and the “damage on GERPU” value [3, 18] was 93%. The “damage on GERPU” value [3, 19] was 98%, the “damage on GERPU” value [3, 20] was 98% and the “damage on GERPU” value [3, 21] was 97%. The “damage on GERPU” value [3, 22] was 78%, the “damage on GERPU” value [3, 23] was 83% and the “damage on GERPU” value [3, 24] was 97%. The “damage on GERPU” value [3, 25] was 73%, the “damage on GERPU” value [3, 26] was 73% and the “damage on GERPU” value [3, 27] was 99%. The “damage on GERPU” value [3, 28] was 96%, the “damage on GERPU” value [3, 29] was 98% and the “damage on GERPU” value [3, 30] was 98%. The “damage on SSYOF” value [4, 7] was 33%, the “damage on SSYOF” value [4, 8] was 0% and the “damage on SSYOF” value [4, 9] was 0%. For the same molecule, the “damage on SSYOF” value [4, 10] was 53%, the “damage on SSYOF” value [4, 11] was 0% and the “damage on SSYOF” value [4, 12] was 0%. The “damage on SSYOF” value [4, 13] was 71%, the “damage on SSYOF” value [4, 14] was 25% and the “damage on SSYOF” value [4, 15] was 25%. For the same molecule, the “damage on SSYOF” value [4, 16] was 60%, the “damage on SSYOF” value [4, 17] was 27% and the “damage on SSYOF” value [4, 18] was 27%. For the same molecule, the “damage on SSYOF” value [4, 19] was 86%, the “damage on SSYOF” value [4, 20] was 50% and the “damage on SSYOF” value [4, 21] was 50%. The “damage on SSYOF” value [4, 22] was 72%, the “damage on SSYOF” value [4, 23] was 32% and the “damage on SSYOF” value [4, 24] was 32%. For the same molecule, the “damage on SSYOF” value [4, 25] was 0%, the “damage on SSYOF” value [4, 26] was 0% and the “damage on SSYOF” value [4, 27] was 23%. The “damage on SSYOF” value [4, 28] was 50%, the “damage on SSYOF” value [4, 29] was 62% and the “damage on SSYOF” value [4, 30] was 52%. The “% activity” value ([5]; 28 DAT) was 78%, the “% activity” value ([5]; 29 DAT) was 87% and the “% activity” value ([6]; Aminopyralid 7.5 g ai/ha solo, 29 DAT) was 94%. For the same molecule, the “% activity” value ([6]; Aminopyralid 7.5 g ai/ha solo, 72 DAT) was 88%, the “% activity” value ([6]; Aminopyralid 7.5 g ai/ha solo, 78 DAT) was 95% and the “% activity” value ([6]; Aminopyralid 15 g ai/ha solo, 28 DAT) was 92%. For the same molecule, the “% activity” value ([6]; Aminopyralid 15 g ai/ha solo, 72 DAT) was 97%.
